Blank lines part the entries; values can stand above or below the molecule they belong to.
What was measured:
[1] = controlled release of drug from the formulation (dialysis bag in PBS sink, UV 272 nm); format: physicochemical
Experimental: (§1) The controlled release of the formulation was evaluated where 0.5 mL of the formulation was placed into a dialysis bag (10 kDa) and submerged in 50 mL sink of phosphate buffered saline (1×; pH 7.4). The samples were placed into a rotating incubator (1 Hz) at 37° C. At designated timepoints, 2 mL of saline was removed and analyzed using ultraviolet visible spectrophotometry (272 nm). The entire sink medium was replaced at each timepoint until drug no longer eluted out of the system.
as §1, with “The release of bupivacaine is shown in a formulation including MCT oil and glycerol monostearate as a structuring agent with and without the presence of an anion to increase hydrophobicity. […] The controlled” for “The controlled”, “buffered saline (lx; pH 7.4).” for “buffered saline (1×; pH 7.4).”

[2] = solubility of ropivacaine forms in lipophilic oils; format: physicochemical
[3] = max solubility of bupivacaine in oil (37° C. overnight, centrifuge, UV 272 nm)
Experimental: The solubility of bupivacaine in a blend of MCT oil and castor oil was studied. […] The max solubility of the oil blends was determined by adding 300 mg of bupivacaine free base into 3 mL of an MCT: castor oil mixture. […] After rotating, samples were spun in a centrifuge at 2000×g for 5 minutes. Next, 30 uL of sample supernatant was taken and dissolved to 1470 uL of ethanol and analyzed using ultraviolet visible spectrophotometry (272 nm).

release of bupivacaine with and without an anion ([1]; FIG. 13, MCT oil and glycerol monostearate, PBS pH 7.4, 37° C.): prolonged
Compound: CCCCC(CC)COC(=O)CC(C(=O)OCC(CC)CCCC)S(=O)(=O)O.CCCCN1CCCCC1C(=O)Nc1c(C)cccc1C (stereo not drawn) [bupivacaine with docusate, bupivacaine docusate]

solubility in lipophilic oils such as medium-chain triglycerides [2]: poor solubility
Compound: CCCN1CCCC[C@H]1C(=O)Nc1c(C)cccc1C [ropivacaine]

drug release with specific blends of oil ([1]; MCT oil:castor oil blends): slows
Compound: CCCCN1CCCCC1C(=O)Nc1c(C)cccc1C (stereo not drawn) [bupivacaine]
drug solubility in castor oil versus MCT [3]: higher drug solubility in castor oil than MCT
solubility of bupivacaine (drug loading) in blends of MCT oil and castor oil ([3]; FIG. 11, 37° C. overnight): drug loading increases with specific blends of oil

solubility in lipophilic oils such as medium-chain triglycerides [2]: suitable solubility
Compound: CCCCC(CC)COC(=O)CC(C(=O)OCC(CC)CCCC)S(=O)(=O)O.CCCN1CCCCC1C(=O)Nc1c(C)cccc1C (stereo not drawn) [ropivacaine docusate]

From US11918572B2, “Pharmaceutical compositions for treating pain” (REBEL MEDICINE INC, priority 2022, dated 2024)
